From patent publication US8680065B2, “Oligonucleotides of human endogenous retrovirus 9 (ERV-9) long terminal repeat (LTR) and methods of use” (The United States of America, as represented by the …, priority 2008, dated 2014)

Assays:
MDA-231 cells = test: Cancer cell proliferation, oligonucleotide in combination with VP16, 48 hours; type: cell-based, human; conditions: oligonucleotide 15 μg/ml with VP16 30 ng/ml and 50 ng/ml, P<0.05
[1] = tested on: MCF-7 cells (a breast cancer cell line); test: Cancer cell proliferation, oligonucleotide in LIPOFECTAMINE, 48 hours, direct cell counting; type: cell-based, human; conditions: P<0.05; for cell proliferation compared with G3139, GRN163 and MDM2 antisense oligonucleotides: oligonucleotide 30 μg/ml; for cell proliferation relative to GFP oligonucleotide: oligonucleotide 10, 20 or 30 μg/ml
Method: (§1) FIG. 6 is a graph showing the effect of sense and antisense ERV-9 U3 oligonucleotides (SEQ ID NOs: 1 and 2, respectively) on proliferation of MCF-7 cells (a breast cancer cell line). Cells (4×10^4) were treated with ERV-9 U3 sense or antisense oligonucleotide formulated in LIPOFECTAMINE™ at the concentrations shown for 48 hours.
(§2) To test the effect of the sense and antisense ERV-9 U3 oligonucleotides on proliferation of cancer cells, six different cancer cell lines were selected for transfection studies: HT1080, fibrosarcoma cells (FIG. 1); MDA-231, breast cancer cells (FIG. 2); K562, myelogenous leukemia cells (FIG. 3); LNcaP, prostate cancer cells (FIG. 4); HepG2, hepatocellular carcinoma cells (FIG. 5); and MCF-7, breast cancer cells (FIG. 6). Cells (4×10^4) were treated with ERV-9 U3 sense or antisense oligonucleotide formulated in LIPOFECTAMINE™ at an oligonucleotide concentration of 10, 20 or 30 μg/ml for 48 hours. Green fluorescent protein (GFP) sense oligonucleotide ([…]; SEQ ID NO: 3) was used as a control to measure the non-specific cytotoxicity of phosphorothioate-based oligonucleotides. Antisense oligonucleotides specific for Bcl-2 (G3139; TCTCCCAGCGTGCGCCAT; SEQ ID NO: 4), telomerase (GRN163; TAGGGTTAGACAA; SEQ ID NO: 5), and MDM2 ([…]; SEQ ID NO: 6) were also evaluated. […] After 48 hours of oligonucleotide treatment, cell proliferation was assessed by direct cell counting. Cell proliferation levels were expressed relative to cells transfected with 10 μg/ml GFP control oligonucleotide.

[2] = tested on: HT1080, MDA-231, K562, LNcaP, HepG2 and MCF-7 cancer cell lines; test: Cancer cell proliferation, Example 2, summary over six cancer cell lines, alone or with VP16; type: cell-based, human; conditions: for proliferation relative to GFP control oligonucleotide: each of six cancer cell lines, oligonucleotide 15 μg/ml, 48 hours; for proliferation compared with Bcl-2, telomerase and MDM2-specific antisense oligonucleotides: six cancer cell lines, alone or with VP16, in most instances
Method: (§3) To test the effect of treating cancer cells with the combination of ERV-9 U3 oligonucleotide and VP16, six different cancer cell lines were analyzed: HT1080, (FIG. 7); MDA-231 (FIG. 8); K562 (FIG. 9); LNcaP (FIG. 10); HepG2 (FIG. 11); and MCF-7 (FIG. 12). Cells (4×10^4) were treated with 15 μg/ml ERV-9 U3 sense (SEQ ID NO: 1) or antisense (SEQ ID NO: 2) oligonucleotide alone or in combination with VP16 at a concentration of 30 ng/ml or 50 ng/ml. After 48 hours, cell proliferation was assessed by direct cell counting. Cell proliferation levels were expressed relative to GFP oligonucleotide control in the absence of VP16.

K562 cells = test: Cancer cell proliferation, oligonucleotide in combination with VP16, 48 hours; type: cell-based, human; conditions: oligonucleotide 15 μg/ml with VP16 30 ng/ml and 50 ng/ml, P<0.05
Method: (§4) FIG. 9 is a graph showing proliferation of K562 cells treated with ERV-9 U3 sense or antisense oligonucleotide (SEQ ID NOs: 1 and 2, respectively), in combination with VP16. Cells (4×10^4) were treated with oligonucleotide (15 μg/ml) alone or in combination with the concentrations of VP16 shown for 48 hours.
as §3

[3] = tested on: K562 cells (a myelogenous leukemia cell line); test: Cancer cell proliferation, oligonucleotide in LIPOFECTAMINE, 48 hours, direct cell counting; type: cell-based, human; conditions: P<0.05
Method: as §1, with “3” for “6”, “K562” for “MCF-7”, “myelogenous leukemia” for “breast cancer”
as §2

human primary monocytes = test: Proliferation of normal human primary cells, 48 hours; type: cell-based; conditions: 20 μg/ml, P>0.05
Method: FIG. 15 is a graph showing the effect of ERV-9 U3 sense and antisense oligonucleotides (SEQ ID NOs: 1 and 2, respectively) on human primary monocytes. Cells (4×10^4) were transfected with ERV-9 U3 sense or antisense oligonucleotide formulated in LIPOFECTAMINE™ at a concentration of 20 μg/ml for 48 hours.
To determine whether the inhibitory effect of ERV-9 U3 oligonucleotides is specific to cancer cells, human primary keratinocytes (FIG. 13), lymphocytes (FIG. 14), or monocytes (FIG. 15) were treated with ERV-9 U3 sense or antisense oligonucleotide and cell proliferation was evaluated. Cells (4×10^4) were transfected with ERV-9 U3 sense or antisense oligonucleotide (SEQ ID NOs: 1 and 2, respectively) formulated in LIPOFECTAMINE™ at a concentration of 20 μg/ml. GFP oligonucleotide was used as non-specific phosphorothioate oligonucleotide control. After 48 hours, cell proliferation was assessed by direct cell counting. Cell proliferation levels were expressed relative to GFP control.

HT1080 cells = test: Cancer cell proliferation, oligonucleotide in combination with VP16, 48 hours; type: cell-based, human; conditions: oligonucleotide 15 μg/ml with VP16 30 ng/ml and 50 ng/ml, P<0.05
Method: as §4, with “FIG. 7” for “FIG. 9”, “of HT1080” for “of K562”, “with VP16 (also known as etoposide).” for “with VP16.”, “hours. Cell proliferation levels were expressed relative to the percentage of GFP oligonucleotide control in the absence of VP16.” for “hours.”
as §3

MCF-7 cells = test: as above; type: cell-based, human; conditions: oligonucleotide 15 μg/ml with VP16 30 ng/ml and 50 ng/ml, P<0.05
Method: as §4, with “FIG. 12” for “FIG. 9”, “of MCF-7” for “of K562”
as §3

HepG2 cells = test: as above; type: cell-based, human; conditions: oligonucleotide 15 μg/ml with VP16 30 ng/ml and 50 ng/ml, P<0.05
Method: as §4, with “FIG. 11” for “FIG. 9”, “of HepG2” for “of K562”
as §3

[4] = tested on: MDA-231 cells (a breast cancer cell line); test: Cancer cell proliferation, oligonucleotide in LIPOFECTAMINE, 48 hours, direct cell counting; type: cell-based, human; conditions: oligonucleotide 10, 20 or 30 μg/ml, P<0.05
[5] = oligonucleotide 10 μg/ml and 20 μg/ml

Substance | cell proliferation relative to GFP oligonucleotide control (MDA-231 cells) | cell proliferation compared with G3139, GRN163 and MDM2 antisense oligonucleotides [1] | cell proliferation relative to GFP oligonucleotide [1] | proliferation relative to GFP control oligonucleotide [2] | proliferation compared with Bcl-2, telomerase and MDM2-specific antisense oligonucleotides [2] | cell proliferation relative to GFP oligonucleotide control (K562 cells) | cell proliferation relative to GFP oligonucleotide [3, 5] | cell proliferation relative to GFP oligonucleotide ([3]; oligonucleotide 30 μg/ml) | cell proliferation relative to control GFP oligonucleotide (human primary monocytes) | cell proliferation relative to GFP oligonucleotide control (HT1080 cells) | cell proliferation relative to GFP oligonucleotide control (MCF-7 cells) | cell proliferation relative to GFP oligonucleotide control (HepG2 cells) | cell proliferation relative to GFP oligonucleotide [4]
U3AS: ERV-9 LTR U3 antisense oligonucleotide CTGATTGGTGTGTTTACAAACCTTGAG, phosphorothioate internucleoside linkages at each position (all phosphorothioate, sugars by position and methylation of C not given here) [Oligo U3AS] | inhibited cell proliferation better than GFP control and G3139, GRN163 and MDM2 antisense oligonucleotides | inhibited proliferation better than G3139, GRN163 and MDM2 antisense oligonucleotides | inhibited cell proliferation better than GFP control oligonucleotide at all three concentrations | resulted in a significant decrease in proliferation of each cancer cell line tested, relative to GFP control oligonucleotide | inhibited proliferation to a greater extent than the Bcl-2, telomerase and MDM2-specific antisense oligonucleotides, either alone or in combination with VP16 | inhibited cell proliferation better than GFP control and G3139, GRN163 and MDM2 antisense oligonucleotides | inhibited cell proliferation better than GFP control oligonucleotide | inhibited proliferation better than GFP control and G3139, GRN163 and MDM2 antisense oligonucleotides | did not inhibit cell proliferation relative to control GFP oligonucleotide | inhibited cell proliferation better than GFP control and G3139, GRN163 and MDM2 antisense oligonucleotides | inhibited cell proliferation better than GFP control and G3139, GRN163 and MDM2 antisense oligonucleotides | inhibited cell proliferation better than GFP control and G3139, GRN163 and MDM2 antisense oligonucleotides | inhibited cell proliferation better than GFP control oligonucleotide at all three oligonucleotide concentrations
U3S: ERV-9 LTR U3 sense oligonucleotide CTCAAGGTTTGTAAACACACCAATCAG, phosphorothioate internucleoside linkages at each position (all phosphorothioate, sugars by position and methylation of C not given here) [Oligo U3S] | inhibited cell proliferation better than GFP oligonucleotide | inhibited proliferation better than G3139, GRN163 and MDM2 antisense oligonucleotides | inhibited cell proliferation better than GFP control oligonucleotide at all three concentrations | resulted in a significant decrease in proliferation of each cancer cell line tested, relative to GFP control oligonucleotide | inhibited proliferation to a greater extent than the Bcl-2, telomerase and MDM2-specific antisense oligonucleotides, either alone or in combination with VP16 | inhibited cell proliferation better than GFP control and G3139, GRN163 and MDM2 antisense oligonucleotides | inhibited cell proliferation better than GFP control oligonucleotide | inhibited proliferation better than GFP control and G3139, GRN163 and MDM2 antisense oligonucleotides | did not inhibit cell proliferation relative to control GFP oligonucleotide | inhibited cell proliferation better than GFP control and G3139, GRN163 and MDM2 antisense oligonucleotides | inhibited cell proliferation better than GFP control and G3139, GRN163 and MDM2 antisense oligonucleotides | inhibited cell proliferation better than GFP control and G3139, GRN163 and MDM2 antisense oligonucleotides | inhibited cell proliferation better than GFP control oligonucleotide at all three oligonucleotide concentrations
